Patent US4003945A, “Novel cyclopropanecarboxylates” (Sumitomo Chemical Company, Limited, priority 1973, dated 1977)
Values after ≈ are worked out from the molar mass of the structure shown.

The molecules below were run on leafhoppers of resistant and susceptible strains (assay: Emulsion sprayed on rice seedlings, leafhoppers released (Example XVI)). Conditions: emulsion diluted to 50 times.
Assay type: in vivo, leafhopper
Procedure: About 20 rice seedlings, cultivated for 20 days after sowing in a flower pot of 8.5 cm in diameter were sprayed with each of the present compounds (31, 32, 35, 39, 40, 42, 45, 48, 55, 59, 60, 63, 131 - 134, 139) in the form of an emulsion which were diluted to 50 times. Each pot was put into the beaker and covered with gauze, into which leafhoppers of resistant and susceptible strains, respectively, were released in each beaker. And the number of knocked down insects after 1 hour and the mortality after 24 hours were counted. As a result, the knock down per centage was more than 50% and the mortality was more than 80% in each case.

Row | SMILES | knock down percentage after 1 hour | mortality after 24 hours
1 | C#CC(OC(=O)C1C(C)(C)C1(C)C)C(C)=Cc1ccccc1 (stereo not drawn) [Compound 39, α-Ethynyl-β-methylcinnamyl 2,2,3,3-tetramethyl-cyclopropanecarboxylate] | more than 50% | more than 80%
2 | C#CC(OC(=O)C1C(C=C2CCCC2)C1(C)C)C(C)=Cc1ccccc1 (stereo not shown) [Compound 40] | more than 50% | more than 80%
3 | C#CC(OC(=O)C1C(C)C1(C)C)C(=Cc1ccc(OCC)cc1)CC (stereo not drawn) [Compound 42, α-Ethynyl-β-ethyl-4-ethoxy-cinnamyl 2',2',3'-trimethyl-cyclopropanecarboxylate] | more than 50% | more than 80%
4 | C#CC(OC(=O)C1C(C=C(C)C=C)C1(C)C)C(C)=Cc1ccc(C#N)cc1 (stereo not drawn) [Compound 45, α-Ethynyl-β-methyl-4-cyano-cinnamyl 2',2'-dimethyl-3'-(2"-methyl-1",3"-butadienyl)-cyclopropanecarboxylate] | more than 50% | more than 80%
5 | C#CC(OC(=O)C1C(C)(C)C1(C)C)C(=Cc1ccccc1)C(C)C (stereo not drawn) [Compound 48, α-Ethynyl-β-isopropylcinnamyl 2,2,3,3-tetramethylcyclopropane-carboxylate] | more than 50% | more than 80%
6 | C#CC(OC(=O)C1(C)C(C=C2CCCC2)C1(C)C)C(C)=Cc1ccccc1C (stereo not drawn) [Compound 55, α-Ethynyl-β-methyl-2-methyl-cinnamyl 1',2',2'-trimethyl-3'-cyclopentylidenemethyl-cyclopropanecarboxylate] | more than 50% | more than 80%
7 | C#CC(OC(=O)C1C(C=C(Cl)Cl)C1(C)C)C(C)=Cc1ccccc1 (stereo not drawn) [Compound 59, α-Ethynyl-β-methylcinnamyl 2,2-dimethyl-3-(2',2'-dichloro-vinyl)cyclopropanecarboxylate] | more than 50% | more than 80%
8 | C#CC(C=Cc1ccco1)OC(=O)C1C(C=C(C)C)C1(C)C (stereo not drawn) [Compound 60, α-Ethynyl-γ-(2-furyl)-allyl chrysanthemate] | more than 50% | more than 80%

These molecules were tested on housefly adults (assay: Oil spray, Campbel's turn table, lethal concentration (Test Example 2)). Conditions: Musca domestica, 24 h.
Assay type: in vivo
Procedure: A group of about 100 housefly adults was exposed to descending spray for 10 minutes, thereafter was transferred to an observation cage, was fed, and was allowed to stand at room temperature.
After a day, the dead and alive were counted to calculate the lethal ratio.

Row | SMILES | LC50 [µg/mL]
9 | C=CCC1=C(C)C(OC(=O)C2C(C=C(C)C)C2(C)C)CC1=O (stereo not shown) [Allethrin, reference compound] | 3500 (≈ 11600 µM)
10 | C#CC(OC(=O)C1C(C=C(C)C)C1(C)C)C(=CCCC)CC (stereo not shown) [Compound 5, 1-Ethynyl-2-ethyl-2-hexenyl chrysanthemate] | 2400 (≈ 7930 µM)
11 | C#CC(OC(=O)C1C(C=C(C)C)C1(C)C)C(C)=CCC=C (stereo not shown) [Compound 29, 1-Ethynyl-2-methyl-2,5-hexadienyl chrysanthemate] | 900 (≈ 3140 µM)
12 | C#CC(OC(=O)C1C(C=C(Cl)Cl)C1(C)C)/C(C)=C/CC (stereo not shown) [Compound 126, 1-Ethynyl-2-methyl-2-pentenyl 2',2'-dimethyl-3'-(2",2"-dichlorovinyl)-yclopropanecarboxylate] | 300 (≈ 952 µM)
13 | C#CC(OC(=O)C1C(C=C(Cl)Cl)C1(C)C)C(C)=CCC=C (stereo not shown) [Compound 127, 1-Ethynyl-2-methyl-2,5-hexadien-1-yl 2',2'-dimethyl-3'-(2",2"-di-chlorovinyl)-cyclopropane-carboxylate] | 250 (≈ 764 µM)
14 | C#CC(OC(=O)C1C(C=C(C)C)C1(C)C)C(C)=CCCC=C (stereo not shown) [Compound 128, 1-Ethynyl-2-methyl-2,6-heptadien-1-yl-chrysanthemate] | 900 (≈ 3000 µM)
15 | C#CC(OC(=O)C1C(C=C(Cl)Cl)C1(C)C)C(C)=CCCC=C (stereo not shown) [Compound 129, 1-Ethynyl-2-methyl-2,6-heptadien-1-yl 2',2'-dimethyl-3'-(2",2"-dichlorovinyl)-cyclopropane-carboxylate] | 230 (≈ 674 µM)
16 | C#CC(OC(=O)C1C(C=C(Cl)Cl)C1(C)C)C(C)=CC (stereo not shown) [Compound 130, 1-Ethynyl-2-methyl-2-butenyl 2',2'-dimethyl-3'-2',2"-dichlorovinyl-cyclopropanecarboxylate] | 1500 (≈ 4980 µM)

Same assay, conditions: Musca domestica, 24 h; Table 3a; oil spray 5 ml, 10 minutes exposure, counted after a day; read-out: LC50

Row | SMILES | LC50 [µg/mL]
17 | C#CC(C#CCOC)OC(=O)C1C(C=C(C)C)C1(C)C (stereo not shown) [Compound 68, 1-Ethynyl-4-methoxy-2-butyn-1-yl chrysanthemate] | 4000 (≈ 14600 µM)
18 | C#CC(C#CCC=C)OC(=O)C1C(C=C(C)C)C1(C)C (stereo not shown) [Compound 71, 1-Ethynylhexa-2-yn-5-en-1-yl chrysanthemate] | 2900 (≈ 10700 µM)
19 | C#CC(C#CCOc1ccccc1)OC(=O)C1C(C=C(C)C)C1(C)C (stereo not shown) [Compound 79, 1-Ethynyl-4-phenoxy-2-butyn-1-yl chrysanthemate] | 830 (≈ 2470 µM)
20 | C#CC(C=CC1C=CCC1)OC(=O)C1C(C=C(C)C)C1(C)C (stereo not shown) [Compound 102, 1-Ethynyl-3-(2'-cyclopentenyl)-allyl chrysanthemate] | 600 (≈ 2010 µM)
21 | C#CC(OC(=O)C1C(C=C(C)C)C1(C)C)C(=CC1=CCCC1)CC (stereo not shown) [Compound 109, 1-Ethynyl-2-ethyl-3-(1'-cyclopentenyl)allyl chrysanthemate] | 340 (≈ 1040 µM)
22 | C#CC(OC(=O)C1C(C=C2CCCC2)C1(C)C)C(C)=CCC1=CCCC1 (stereo not shown) [Compound 111, 1-Ethynyl-2-methyl-4-(1'-cyclopentenyl)-2-butenyl 2",2"- dimethyl-3"-cyclopentylidene-methylcyclopropanecarboxylate] | 410 (≈ 1160 µM)
23 | C#CC(C#CCOC)OC(=O)C1C(C=C(Cl)Cl)C1(C)C (stereo not shown) [Compound 142, 1-Ethynyl-4-methoxy-2-butyn-1-yl 2',2'-dimethyl-3'-(2",2"- dichlorovinyl)-cyclopropane-carboxylate] | 1200 (≈ 3810 µM)
24 | C#CC(C#CCC=C)OC(=O)C1C(C=C(Cl)Cl)C1(C)C (stereo not shown) [Compound 143, 1-Ethynyl-4-vinyl-2-butyn-1-yl 2',2'-dimethyl-340-(2",2"-dichloro-vinyl)-cyclopropanecarboxylate] | 820 (≈ 2630 µM)
25 | C#CC(C#CCOc1ccccc1)OC(=O)C1C(C=C(Cl)Cl)C1(C)C (stereo not shown) [Compound 144, 1-Ethynyl-4-phenoxy-2-butyn-1-yl 2',2'-dimethyl-3'-(2",2"-dichlorovinyl)-cyclopropanecarboxylate] | 290 (≈ 769 µM)

These molecules were tested on adults of houseflies (assay: Oil preparation sprayed on Campbell's turn table (Example XX)). Conditions: Musca domestica, 24 h; Table 6; 1% oil preparation 5 ml, 10 minutes exposure, next day.
Assay type: in vivo, housefly
Procedure: The oil preparation obtained as in Example B (5 ml) was sprayed by the use of a Campbell's turn table [Soap & Sanitary Chemicals, Vol. 14, No. 6, 119 (1938) ] on 100 adults of houseflies were exposed to the spray for 10 minutes. The houseflies were then allowed to stand with feeding. On the next day, dead and alive were observed.

Row | SMILES | mortality at 1 % [%]
26 | C#CC(OC(=O)C1C(C=C(Cl)Cl)C1(C)C)C(C)=Cc1c(C)cc(OC)cc1C (stereo not drawn) [Compound 136, α-Ethynyl-β-methyl-2,6- -dimethyl-4-methoxy cinnamyl 2',2'-dimethyl-3'2"-2"- dichlorovinyl)-cyclopropane-carboxylate] | 90
27 | C#CC(OC(=O)C1C(C=C(Cl)Cl)C1(C)C)C(C)=Cc1ccc(C#N)cc1 (stereo not shown) [Compound 137] | 100
28 | C#CC(C=C(c1ccccc1)c1ccccc1)OC(=O)C1C(C=C(Cl)Cl)C1(C)C (stereo not shown) [Compound 138] | 100

These molecules were tested on 3rd or 4th instar larvae of tobacco cut worm (assay: Diluted emulsion sprayed by settling tower on larvae (Example X)). Conditions: emulsion diluted to 50 times, 1 ml.
Assay type: in vivo
Procedure: Ten of the 3rd or 4th instar larvae of tobacco cut worm were put into a petri dish of 17 cm in diameter.
One ml of the present compound (4, 11, 28, 92, 94, 95, 109, 111) in form of an emulsion obtained in Example X, which were diluted to 50 times with water, were sprayed by means of a settling tower. The said larvae were removed into another petri dish with the leaves of the chinese cabbage leaves. Observation was made after 48 hrs. As a result, more than 90% of the larvae were dead in each case.

Row | SMILES | larvae dead after 48 hrs
29 | C#CC(OC(=O)C1C(C)(C)C1(C)C)C(C)=CC (stereo not shown) [Compound 11, 1-Ethynyl-2-methyl-2-butenyl 2',2',3',3'-tetramethylcyclo-propanecarboxylate] | more than 90%
30 | C#CC(OC(=O)C1C(C=C2CCCC2)C1(C)C)C(C)=CCC (stereo not shown) [Compound 28, 1-Ethynyl-2-methyl-2-pentenyl 2',2'-dimethyl-3'-cyclopentylidene-methylcyclopropanecarboxylate] | more than 90%
31 | C#CC(C#CCC=C)OC(=O)C1C(C=CC=C)C1(C)C (stereo not shown) [Compound 92, 1-Ethynylhexa-2-yn-5-en-1-yl 2',2'-dimethyl-3'-(1",3"- butadienyl)cyclopropane-carboxylate] | more than 90%
32 | C#CC(C#CCC=C)OC(=O)C1C(C=C2CCCC2)C1(C)C (stereo not shown) [Compound 94, 1-Ethynylhexa-2-yn-5-en-1-yl 2',2'-dimethyl-3-'-cyclopentylidene-methylcyclopropanecarboxylate] | more than 90%
33 | C#CC(C#CCC=C)OC(=O)C1C(C=C(Cl)Cl)C1(C)C (stereo not shown) [Compound 95, 1-Ethynylhexa-2-yn-5-en-1-yl 2',2'-dimethyl-3'-(2",2"- dichlorovinyl)cyclopropane-carboxylate] | more than 90%
34 | C#CC(OC(=O)C1C(C=C(C)C)C1(C)C)C(=CC1=CCCC1)CC (stereo not shown) [Compound 109, 1-Ethynyl-2-ethyl-3-(1'-cyclopentenyl)allyl chrysanthemate] | more than 90%
35 | C#CC(OC(=O)C1C(C=C2CCCC2)C1(C)C)C(C)=CCC1=CCCC1 (stereo not shown) [Compound 111, 1-Ethynyl-2-methyl-4-(1'-cyclopentenyl)-2-butenyl 2",2"- dimethyl-3"-cyclopentylidene-methylcyclopropanecarboxylate] | more than 90%

The molecules below were run on adult planthoppers (assay: Residual effect on sprayed rice seedlings (Example XV)). Conditions: concentrate diluted to 400 times; observed 24 hours after release.
Assay type: in vivo
Procedure: About 20 rice seedlings, cultivated for 20 days after sowing in a flower pot of 8.5 cm in diameter, were sprayed with each of the emulsifiable concentrates obtained as in Example X which were diluted to 400 times with water. After air-drying, each pot was covered with a wire cage, into which 20 adult planthoppers were released as time elapsed. And the observation was made after 24 hours.

Row | SMILES | Mortality (%) After 1 day [%] | Mortality (%) After 6 days [%]
36 | C#CC(OC(=O)C1C(C)(C)C1(C)C)C(C)=Cc1ccccc1 (stereo not drawn) [Compound 39, α-Ethynyl-β-methylcinnamyl 2,2,3,3-tetramethyl-cyclopropanecarboxylate] | 100 | 85.0
37 | C#CC(OC(=O)C1C(C=C2CCCC2)C1(C)C)C(C)=Cc1ccccc1 (stereo not shown) [Compound 40] | 100 | 66.7
38 | CNC(=O)Oc1ccc(C)c(C)c1 [Meobal, 3,4-Dimethylphenyl-N-methylcarbamate, reference compound] | 100 | 40.0
